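Growth conditions: 96-well plates. Treatment: test compound, 48 hours, 5 concentrations. Analysis: linear interpolation between bracketing concentrations; unreached endpoints set to highest concentration. TGI denotes the concentration required for complete inhibition of growth.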
How the values were obtained:
Assay in all cases: growth of human tumour cells (NCI), 48 h
LOX IMVI melanoma = tested on: LOX IMVI melanoma
OVCAR-3 ovarian = tested on: OVCAR-3 ovarian
SF-268 CNS = tested on: SF-268 CNS
CAKI-1 renal = tested on: CAKI-1 renal
KM20L2 colon = tested on: KM20L2 colon
HOP-92 NSCLC = tested on: HOP-92 NSCLC
HCT-15 colon = tested on: HCT-15 colon
UACC-62 melanoma = tested on: UACC-62 melanoma
MALME-3M melanoma = tested on: MALME-3M melanoma
OVCAR-5 ovarian = tested on: OVCAR-5 ovarian
HCC-2998 colon = tested on: HCC-2998 colon
LXFL 529 NSCLC = tested on: LXFL 529 NSCLC
HCT-116 colon = tested on: HCT-116 colon
UO-31 renal = tested on: UO-31 renal
SF-295 CNS = tested on: SF-295 CNS
SK-OV-3 ovarian = tested on: SK-OV-3 ovarian
SNB-75 CNS = tested on: SNB-75 CNS
IGROV1 ovarian = tested on: IGROV1 ovarian
NCI-H460 lung = tested on: NCI-H460 lung
RPMI-8226 leukemia = tested on: RPMI-8226 leukemia
COLO 205 colon = tested on: COLO 205 colon
SK-MEL-5 melanoma = tested on: SK-MEL-5 melanoma
A498 renal = tested on: A498 renal
NCI-H226 lung = tested on: NCI-H226 lung
786-0 renal = tested on: 786-0 renal
HOP-18 NSCLC = tested on: HOP-18 NSCLC
XF 498 CNS = tested on: XF 498 CNS
NCI-H23 lung = tested on: NCI-H23 lung
M19-MEL melanoma = tested on: M19-MEL melanoma
OVCAR-4 ovarian = tested on: OVCAR-4 ovarian
TK-10 renal = tested on: TK-10 renal
RXF-631 renal = tested on: RXF-631 renal
SF-539 CNS = tested on: SF-539 CNS
K-562 leukemia = tested on: K-562 leukemia
HOP-62 NSCLC = tested on: HOP-62 NSCLC
HL-60(TB) leukemia = tested on: HL-60(TB) leukemia
DLD-1 colon = tested on: DLD-1 colon
SN12C renal = tested on: SN12C renal
OVCAR-8 ovarian = tested on: OVCAR-8 ovarian
EKVX NSCLC = tested on: EKVX NSCLC
SW-620 colon = tested on: SW-620 colon
M14 melanoma = tested on: M14 melanoma
MOLT-4 leukemia = tested on: MOLT-4 leukemia
SNB-78 CNS = tested on: SNB-78 CNS
NCI-H522 lung = tested on: NCI-H522 lung
RXF 393 renal = tested on: RXF 393 renal
CCRF-CEM leukemia = tested on: CCRF-CEM leukemia
DMS 273 small cell lung = tested on: DMS 273 small cell lung
U251 CNS = tested on: U251 CNS
HT29 colon = tested on: HT29 colon
SK-MEL-2 melanoma = tested on: SK-MEL-2 melanoma
DMS 114 small cell lung = tested on: DMS 114 small cell lung
SNB-19 CNS = tested on: SNB-19 CNS
KM12 colon = tested on: KM12 colon
A549 NSCLC = tested on: A549 NSCLC
UACC-257 melanoma = tested on: UACC-257 melanoma

Measured: TGI

COC(=O)CCC1=NOC(CC2CC(CCC(=O)OC)=NO2)C1 (stereo unspecified)
> 100 µM: all assays above

Reference: PubChem BioAssay (NCI)
